Reference: ChEMBL document CHEMBL5338758, “Design, Synthesis, and Bioevaluation of Novel MyD88 Inhibitor c17 against Acute Lung Injury Derived from the Virtual Screen” (J Med Chem, 2023)
Calls of active or inactive are those of the source. No cut-off for these calls is given here.

Legend:
[1] = Drug distribution in Sprague-Dawley rat liver at 10 mg/kg, po measured after 3 hrs by LC-MS/MS analysis; format: ADME, organism-based; details: read-out: Drug uptake
[2] = tested on: Mus musculus; assay: Anti-inflammatory activity against LPS-induced […] mouse model of […] assessed as decrease in IL-6 mRNA level in lung at 20 mg/kg, po pre-treated with compound for 30 mins followed by LPS stimulation and measured after 6 hrs by qRT-PCR analysis; format: functional, organism-based; details: time 6.5 hrs
[3] = Half-life in Sprague-Dawley rat at 1 mg/kg, iv measured at 5 to 1440 min by LC-MS/MS analysis; format: ADME, organism-based; details: in vivo, time 5-1440 min
[4] = Drug distribution in Sprague-Dawley rat kidney at 10 mg/kg, po measured after 3 hrs by LC-MS/MS analysis; format: ADME, organism-based; details: read-out: Drug uptake
[5] = Drug distribution in Sprague-Dawley rat lung at 10 mg/kg, po measured after 1 hrs by LC-MS/MS analysis; format: ADME, organism-based; details: read-out: Drug uptake
[6] = tested on: Mus musculus; assay: Anti-inflammatory activity against LPS-induced […] mouse model of […] assessed as alleviation of lung edema by measuring decrease in total lung protein level at 20 mg/kg, po pre-treated with compound for 30 mins followed by LPS stimulation and measured after 6 hrs; format: functional, organism-based; details: time 6.5 hrs
[7] = Stability of compound in rat serum at 32 degreeC measured every 2 hrs for 24 hrs by HPLC analysis; format: ADME, cell-free
[8] = tested on: J774.A1; assay: Inhibition of NF-kappaB pathway in LPS-induced mouse J774.A1 cells assessed as […] in IkappaB-alpha phosphorylation at 10 to 40 uM preincubated with compound for 2 hrs followed by LPS-stimulation and measured after 15 mins by Western blot analysis; format: cell-based; details: dose 10-40 µM, time 135.0 min
[9] = Toxicity in ICR mouse assessed as effect on body weight change at 20 to 400 mg/kg, po measured upto 21 days; format: organism-based; details: in vivo, 504 h, dose 20-400 mg/kg, time < 21 day
[10] = Drug distribution in Sprague-Dawley rat spleen at 10 mg/kg, po measured after 3 hrs by LC-MS/MS analysis; format: ADME, organism-based; details: read-out: Drug uptake
[11] = tested on: Mus musculus; assay: Anti-inflammatory activity against LPS-induced […] mouse model of […] assessed as decrease in IL-6 level in serum at 20 mg/kg, po pre-treated with compound for 30 mins followed by LPS stimulation and measured after 6 hrs; format: functional, organism-based; details: time 6.5 hrs
[12] = tested on: J774.A1; assay: Anti-inflammatory activity in mouse J774.A1 cells assessed as inhibition of LPS-induced IL-6 production at 10 uM pre-stimulated with LPS for 24 hrs followed by compound addition and measured after 0.5 hrs by ELISA analysis relative to control; format: functional
[13] = tested on: Mus musculus; assay: Anti-inflammatory activity against LPS-induced […] mouse model of […] assessed as decrease in TNF-alpha level in BALF at 20 mg/kg, po pre-treated with compound for 30 mins followed by LPS stimulation and measured after 6 hrs; format: functional, organism-based; details: time 6.5 hrs
[14] = Drug distribution in Sprague-Dawley rat kidney at 1 mg/kg, iv measured after 0.5 hrs by LC-MS/MS analysis; format: ADME, organism-based; details: read-out: Drug uptake
[15] = Stability of compound in rat serum at 25 degreeC measured every 2 hrs for 24 hrs by HPLC analysis; format: ADME, cell-free
[16] = tested on: THP-1; assay: Anti-inflammatory activity in human THP-1 cells assessed as inhibition of LPS-stimulated TNF-alpha release at 1.25 to 20 uM by ELISA analysis; format: functional, cell-based; details: dose 1.25-20 µM
[17] = Drug distribution in Sprague-Dawley rat spleen at 1 mg/kg, iv measured after 2 hrs by LC-MS/MS analysis; format: ADME, organism-based; details: read-out: Drug uptake
[18] = tested on: Mus musculus; assay: Anti-inflammatory activity against LPS-induced […] mouse model of […] assessed as alleviation of inflammatory infiltration in lung at 20 mg/kg, po pre-treated with compound for 30 mins followed by LPS stimulation and measured after 6 hrs by H&E staining based histopathological analysis; format: functional, organism-based; details: time 6.5 hrs
[19] = Drug distribution in Sprague-Dawley rat heart at 10 mg/kg, po measured after 1 hrs by LC-MS/MS analysis; format: ADME, organism-based; details: read-out: Drug uptake
[20] = tested on: Mus musculus; assay: Anti-inflammatory activity against LPS-induced […] mouse model of […] assessed as decrease in TNF-alpha level in serum at 20 mg/kg, po pre-treated with compound for 30 mins followed by LPS stimulation and measured after 6 hrs; format: functional, organism-based; details: time 6.5 hrs
[21] = tested on: Mus musculus; assay: Anti-inflammatory activity against LPS-induced […] mouse model of […] assessed as decrease in TNF-alpha mRNA level in lung at 20 mg/kg, po pre-treated with compound for 30 mins followed by LPS stimulation and measured after 6 hrs by qRT-PCR analysis; format: functional, organism-based; details: time 6.5 hrs
[22] = Drug distribution in Sprague-Dawley rat heart at 10 mg/kg, po measured after 8 hrs by LC-MS/MS analysis; format: ADME, organism-based; details: read-out: Drug uptake
[23] = Drug distribution in Sprague-Dawley rat liver at 10 mg/kg, po measured after 8 hrs by LC-MS/MS analysis; format: ADME, organism-based; details: read-out: Drug uptake
[24] = tested on: J774.A1; assay: Anti-inflammatory activity in mouse J774.A1 cells assessed as inhibition of LPS-induced TNF-alpha production pre-stimulated with LPS for 24 hrs followed by compound addition and measured after 0.5 hrs by ELISA analysis; format: functional, cell-based
[25] = tested on: J774.A1; assay: Cytotoxicity against mouse J774.A1 cells assessed as reduction in cell survival incubated for 24 hrs by MTT assay; format: toxicity, cell-based; details: j774.a1, 24 h
[26] = Drug distribution in Sprague-Dawley rat spleen at 1 mg/kg, iv measured after 0.5 hrs by LC-MS/MS analysis; format: ADME, organism-based; details: read-out: Drug uptake
[27] = Drug distribution in Sprague-Dawley rat kidney at 1 mg/kg, iv measured after 4 hrs by LC-MS/MS analysis; format: ADME, organism-based; details: read-out: Drug uptake
[28] = tested on: J774.A1; assay: Inhibition of NF-kappaB pathway in LPS-induced mouse J774.A1 cells assessed as decrease in p65 nuclear translocation preincubated with compound for 2 hrs followed by LPS-stimulation and measured after 15 mins by Western blot analysis; format: cell-based; details: dose 10-40 µM, time 135.0 min
[29] = Drug distribution in Sprague-Dawley rat lung at 10 mg/kg, po measured after 8 hrs by LC-MS/MS analysis; format: ADME, organism-based; details: read-out: Drug uptake
[30] = Drug distribution in Sprague-Dawley rat liver at 10 mg/kg, po measured after 1 hrs by LC-MS/MS analysis; format: ADME, organism-based; details: read-out: Drug uptake
[31] = Drug distribution in Sprague-Dawley rat lung at 1 mg/kg, iv measured after 2 hrs by LC-MS/MS analysis; format: ADME, organism-based; details: read-out: Drug uptake
[32] = Toxicity in ICR mouse assessed as mortality at 20 to 400 mg/kg, po measured upto 21 days; format: organism-based; details: in vivo, 504 h, dose 20-400 mg/kg, time < 21 day
[33] = Drug distribution in Sprague-Dawley rat brain at 1 mg/kg, iv measured after 4 hrs by LC-MS/MS analysis; format: ADME, organism-based; details: read-out: Drug uptake
[34] = Drug distribution in Sprague-Dawley rat brain at 1 mg/kg, iv measured after 2 hrs by LC-MS/MS analysis; format: ADME, organism-based; details: read-out: Drug uptake
[35] = Drug distribution in Sprague-Dawley rat heart at 1 mg/kg, iv measured after 2 hrs by LC-MS/MS analysis; format: ADME, organism-based; details: read-out: Drug uptake
[36] = tested on: Mus musculus; assay: Anti-inflammatory activity against LPS-induced […] mouse model of […] assessed as alleviation of interstitial edema in lung at 20 mg/kg, po pre-treated with compound for 30 mins followed by LPS stimulation and measured after 6 hrs by H&E staining based histopathological analysis; format: functional, organism-based; details: time 6.5 hrs

Structure (SMILES): COc1ccc(NS(=O)(=O)c2ccc(N3CCN(Cc4cccc([N+](=O)[O-])c4)CC3)c([N+](=O)[O-])c2)cn1
- concentration at 3 h [1]: 287 ng/g
- Activity [2]: Active
- half-life [3]: 1.1 h
- concentration at 3 h [4]: 3.31 ng/g
- concentration at 1 h [5]: 41.6 ng/g
- Activity [6]: Active
- Stability [7]: Stable
- inhibition [8]: Active
- Activity [9]: Non-Toxic
- concentration at 3 h [10]: 32 ng/g
- Activity [11]: Active
- inhibition at 10 µM [12]: 69%
- Activity [13]: Active
- concentration at 0.5 h [14]: 52.5 ng/g
- Stability [15]: Stable
- inhibition [16]: Active
- concentration at 2 h [17]: 76.8 ng/g
- Activity [18]: Active
- concentration at 1 h [19]: 10.6 ng/g
- Activity [20]: Active
- Activity [21]: Active
- concentration at 8 h [22]: 452 ng/g
- concentration at 8 h [23]: 249 ng/g
- IC50 [24]: 8.17 µM
- Activity [25]: Non-Toxic
- concentration at 0.5 h [26]: 32.2 ng/g
- concentration at 4 h [27]: 250 ng/g
- inhibition [28]: Dose-Dependent Effect
- concentration at 8 h [29]: 527 ng/g
- concentration at 1 h [30]: 267 ng/g
- concentration at 2 h [31]: 206 ng/g
- Activity [32]: Non-Toxic
- concentration at 4 h [33]: 7.99 ng/g
- concentration at 2 h [34]: 0.66 ng/g
- concentration at 2 h [35]: 118 ng/g
- Activity [36]: Active
